Results: patent US10399932B2, “Inhibitors of indoleamine-2,3-dioxygenase for the treatment of cancer” (BRISTOL-MYERS SQUIBB COMPANY, priority 2015, dated 2019)

molecular target: human IDO1 (Homo sapiens, UniProt P14902); assay: Assessment of human IDO-1 inhibitory activity in Hela cells (Interferon-gamma activated, Ehrlich reagent, absorbance at 490 nm); type: cell-based; parameters: endogenous in cells; host or cells: HeLa cells stimulated with interferon-gamma; conditions: 18 hours
Description: Exemplary compounds were tested for inhibition of IDO activity.
HeLa cells were seeded at 20,000 cells per 30 µL per well with RPMI/phenol red free media containing 10% FBS in a 384-well tissue culture plate (black with clear bottoms). 50 nL of compound was added to cells and incubated at 37° C. for one hour. 20 μL of the recombinant human Interferon-gamma (R&D System, Cat. #285-IF, at final concentration of 10 ng/ml) or recombinant murine Interferon-gamma (PEPROTECH® Inc., Cat. #315-05, final concentration of 5 ng/ml) was added to activate IDO signaling. The cells were incubated for 18 hours in 37° C. incubator with 5% CO2.
Compound treatment was stopped by adding 5 μl trichloroacetic acid to a final concentration of 3%. Subsequently, the cell plate was further incubated at 50° C. for 30 minute. An equal volume supernatant (20 μL) and 2% (w/v) Ehrlich reagent (4-dimethylaminobenzaldehyde) in glacial acetic acid were mixed in a new clear bottom 384-well plate. This plate was incubated at room temperature for 30 minutes. Absorbance at 490 nm was measured on Envision plate reader.
Compound IC50 values were calculated using counts from unstimulated (no INF-gamma treatment) wells as 100% inhibition. INF-gamma treatment without compound treatment as 0% inhibition.

human IDO1, sequence (P14902 whole entry): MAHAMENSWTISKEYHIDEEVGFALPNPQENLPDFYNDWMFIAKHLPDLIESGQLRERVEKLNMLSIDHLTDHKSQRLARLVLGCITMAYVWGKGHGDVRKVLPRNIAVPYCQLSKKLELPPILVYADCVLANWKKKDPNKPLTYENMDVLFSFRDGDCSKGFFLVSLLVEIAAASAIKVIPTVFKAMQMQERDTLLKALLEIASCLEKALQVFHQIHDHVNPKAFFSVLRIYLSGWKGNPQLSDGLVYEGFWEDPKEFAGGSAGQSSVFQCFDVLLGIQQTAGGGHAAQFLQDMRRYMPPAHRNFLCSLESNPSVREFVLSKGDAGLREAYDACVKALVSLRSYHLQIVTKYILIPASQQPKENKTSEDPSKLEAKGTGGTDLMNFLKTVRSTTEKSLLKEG

| Structure (SMILES) | IC50 [nM] |
| --- | --- |
| CCC(CC(=O)O)c1cc(Nc2cnc(OCC3CC3)nc2)c(N(CC)C2CCOCC2)cc1F (single isomer, unassigned) [Example 863, 3-(5-((2-(cyclopropylmethoxy)pyrimidin-5-yl)amino)-4-(ethyl(tetrahydro-2H-pyran-4-yl)amino)-2-fluorophenyl) pentanoic acid] | < 5 |
| CCOc1ncc(Nc2cc(C(CC)CC(=O)O)c(F)cc2N(CC)C2CCOCC2)cn1 (single isomer, unassigned) [Example 865, 3-(5-((2-ethoxypyrimidin-5-yl)amino)-4-(ethyl (tetrahydro-2H-pyran-4-yl)amino)-2-fluorophenyl) pentanoic acid] | < 5 |
| CCOc1ncc(Nc2cc(C(CC)CC(=O)O)ccc2N(C)C2CCOCC2)cn1 (single isomer, unassigned) [Example 872, 3-(3-((2-ethoxypyrimidin-5-yl)amino)-4-(methyl (tetrahydro-2H-pyran-4-yl)amino)phenyl)pentanoic acid] | < 50 |
| COCC(CC(=O)O)c1ccc(N(C)C2CCOCC2)c(Nc2ccc(C#N)cc2)c1 (single isomer, unassigned) [Example 880, 3-(3-((4-Cyanophenyl)amino)-4-(methyl(tetrahydro-2H-pyran-4-yl)amino)phenyl)-4-methoxybutanoic acid] | < 50 |
| COCC(CC(=O)O)c1ccc(N(C)C2CCOCC2)c(Nc2ccc(C#N)c(F)c2)c1 (single isomer, unassigned) [Example 882, 3-(3-((4-cyano-3-fluorophenyl)amino)-4-(methyl(tetrahydro-2H-pyran-4-yl)amino)phenyl)-4-methoxybutanoic acid] | < 50 |
| COCC(CC(=O)O)c1ccc(N(C)C2CCOCC2)c(Nc2ccc(C#N)cc2F)c1 (single isomer, unassigned) [Example 883, 3-(3-((4-cyano-2-fluorophenyl)amino)-4-(methyl(tetrahydro-2H-pyran-4-yl)amino)phenyl)-4-methoxybutanoic acid] | < 50 |
| CCOc1ncc(Nc2cc(C(COC)CC(=O)O)ccc2N(C)C2CCOCC2)cn1 (single isomer, unassigned) [Example 885, 3-(3-((2-ethoxypyrimidin-5-yl)amino)-4-(methyl (tetrahydro-2H-pyran-4-yl)amino)phenyl)-4-methoxybutanoic acid] | > 50 |
| CCN(c1c(F)cc(C(COC)CC(=O)O)cc1NC(=O)Nc1ccc(Cl)cc1F)C1CCOCC1 (single isomer, unassigned) [Example 917, 3-(3-(3-(4-Chloro-2-fluorophenyl)ureido)-4-(ethyl(tetrahydro-2H-pyran-4-yl)amino)-5-fluorophenyl)-4-methoxybutanoic acid] | > 50 |
| COCC(CC(=O)O)c1cc(F)c(N(CC(C)C)CC(C)C)c(Nc2ccc(Cl)cc2)c1 (single isomer, unassigned) [Example 921, 3-(3-((4-Chlorophenyl)amino)-4-(diisobutylamino)-5-fluorophenyl)-4-methoxybutanoic acid] | < 5 |
| COCC(CC(=O)O)c1ccc(NC2CCOCC2)c(Nc2ccc(C#N)cc2)c1 (single isomer, unassigned) [Example 928 E2, 3-(3-((4-Cyanophenyl)amino)-4-((tetrahydro-2H-pyran-4-yl)amino)phenyl)-4-methoxybutanoic acid] | > 50 |
| CCOc1ncc(Nc2cc(C(COC)CC(=O)O)ccc2N2CCOC[C@@H]2C(C)C)cn1 (single isomer, unassigned) [Example 935] | > 50 |
| COCC(CC(=O)O)c1ccc(N2CCOC[C@@H]2C(C)C)c(NC(=O)Nc2ccc(C#N)cc2)c1 (single isomer, unassigned) [Example 936] | > 50 |
| CCC(CC(=O)O)c1ccc(N(C)C2CCOCC2)c(Nc2ccc(Cl)cc2)c1 (single isomer, unassigned) [Example 937, 3-(3-((4-chlorophenyl)amino)-4-(methyl(tetrahydro-2H-pyran-4-yl)amino)phenyl) pentanoic acid] | < 5 |
| CCC(CC(=O)O)c1ccc(N(CC)C2CCN(Cc3ccccc3)CC2)c(Nc2ccc(C#N)cc2)c1 (single isomer, unassigned) [Example 943, 3-(4-((1-benzylpiperidin-4-yl)(ethyl)amino)-3-((4-cyanophenyl)amino)phenyl) pentanoic acid] | < 5 |
| CCC(CC(=O)O)c1ccc(N(CCOC)C2CCOCC2)c(Nc2ccc(C#N)cc2)c1 (single isomer, unassigned) [Example 1261, 3-(3-((4-cyanophenyl)amino)-4-((2-methoxyethyl)(tetrahydro-2H-pyran-4-yl)amino)phenyl)pentanoic acid] | < 5 |
| CCOc1ncc(Nc2cc(C(CC)CC(=O)O)ccc2N(CCOC)C2CCOCC2)cn1 (single isomer, unassigned) [Example 1263, 3-(3-((2-ethoxypyrimidin-5-yl)amino)-4-((2-methoxyethyl)(tetrahydro-2H-pyran-4-yl)amino)phenyl)pentanoic acid] | < 50 |
| CCC1COCCN1c1ccc([C@@H](COC)CC(=O)O)cc1Nc1ccc(C#N)cn1 (single isomer, unassigned) [Example 1297] | > 50 |
| CCC1COCCN1c1ccc([C@@H](COC)CC(=O)O)cc1Nc1cnc(OC)nc1 (single isomer, unassigned) [Example 1298] | > 50 |
| CCOc1ncc(Nc2cc([C@@H](COC)CC(=O)O)ccc2N2CCOCC2CC)cn1 (single isomer, unassigned) [Example 1299] | > 50 |
| CCC1COCCN1c1ccc([C@H](COC)CC(=O)O)cc1Nc1ccc(C#N)cn1 (single isomer, unassigned) [Example 1305] | > 50 |
| CCC1COCCN1c1ccc([C@H](COC)CC(=O)O)cc1Nc1ccc(F)cn1 (single isomer, unassigned) [Example 1310] | > 50 |

The remaining lines, values ahead:

| IC50 [nM] | Structure (SMILES) |
| --- | --- |
| < 5 | CCC(CC(=O)O)c1cc(Nc2ccc(Cl)cc2)c(N(CC)C2CCOCC2)cc1F (single isomer, unassigned) [Example 861, 3-(5-((4-Chlorophenyl)amino)-4-(ethyl(tetrahydro-2H-pyran-4-yl)amino)-2-fluorophenyl)pentanoic acid] |
| < 5 | CCC(CC(=O)O)c1cc(Nc2cnc(OC)nc2)c(N(CC)C2CCOCC2)cc1F (single isomer, unassigned) [Example 864, 3-(4-(ethyl(tetrahydro-2H-pyran-4-yl)amino)-2-fluoro-5-((2-methoxypyrimidin-5-yl)amino)phenyl)pentanoic acid] |
| > 50 | COCC(CC(=O)O)c1ccc(N2CCOC[C@H]2C(C)C)c(NC(=O)Nc2ccc(C#N)cc2)c1 (single isomer, unassigned) [Example 915] |
| < 50 | CCc1ccc(Nc2cc(C(COC)CC(=O)O)cc(F)c2N(CC(C)C)CC(C)C)cc1 (single isomer, unassigned) [Example 926, 3-(4-(diisobutylamino)-3-((4-ethylphenyl)amino)-5-fluorophenyl)-4-methoxybutanoic acid.] |
| > 50 | CCOc1ncc(Nc2cc(C(COC)CC(=O)O)ccc2N2CCOC[C@H]2C(C)C)cn1 (single isomer, unassigned) [Example 938] |
| < 50 | CCOc1ncc(Nc2cc(C(CC)CC(=O)O)ccc2N(CC)C2CCOC2)cn1 (single isomer, unassigned) [Example 945 D2, 3-(3-((2-Ethoxypyrimidin-5-yl)amino)-4-(ethyl (tetrahydrofuran-3-yl)amino)phenyl)pentanoic acid] |
| < 50 | CCC(CC(=O)O)c1ccc(N2CC(O)(c3ccc(F)cc3)C2)c(Nc2ccc(C#N)cc2)c1 (single isomer, unassigned) [Example 1255, 3-(3-((4-cyanophenyl)amino)-4-(3-(4-fluorophenyl)-3-hydroxyazetidin-1-yl)phenyl)pentanoic acid] |
| < 50 | CCC(CC(=O)O)c1ccc(N(CCOC)C2CCOCC2)c(Nc2cnc(OC)nc2)c1 (single isomer, unassigned) [Example 1262, 3-(4-((2-methoxyethyl)(tetrahydro-2H-pyran-4-yl)amino)-3-((2-methoxypyrimidin-5-yl)amino)phenyl)pentanoic acid] |
| < 50 | CCC(CC(=O)O)c1ccc(N(CCOC)C2CCOCC2)c(NC(=O)Nc2ccc(Cl)cc2F)c1 (single isomer, unassigned) [Example 1266, 3-(3-(3-(4-chloro-2-fluorophenyl)ureido)-4-((2-methoxyethyl) (tetrahydro-2H-pyran-4-yl)amino)phenyl)pentanoic acid] |
| > 50 | CCC1COCCN1c1ccc([C@@H](COC)CC(=O)O)cc1Nc1ccc(C#N)c(F)c1 (single isomer, unassigned) [Example 1296] |
| > 50 | CCC1COCCN1c1ccc([C@H](COC)CC(=O)O)cc1Nc1cnc(OC)nc1 (single isomer, unassigned) [Example 1306] |
| > 50 | CCOc1ncc(Nc2cc([C@H](COC)CC(=O)O)ccc2N2CCOCC2CC)cn1 (single isomer, unassigned) [Example 1307] |
| < 50 | CCC1COCCN1c1ccc([C@H](COC)CC(=O)O)cc1Nc1ccc(Cl)cc1 (single isomer, unassigned) [Example 1308] |
| > 50 | COCC(CC(=O)O)c1ccc(N2CCOC(C)C2)c(Nc2ccc(C#N)cc2)c1 (single isomer, unassigned) [Example 1313] |
